# In the NIST ThermoML archive (doi:10.1016/j.fluid.2018.01.023):
# ± gives the expanded uncertainty stated by the source.
# Assay: xn = mol fraction of the nth substance listed
# Settings: 92 K, Liquid, Buoyancy - hydrostatic balance with magnetic suspension - one sinker
"mass density (138.3 kPa, x1 = 0.967)","mass density (1039.4 kPa, x1 = 0.952)","mass density (159.1 kPa, x2 = 0.884)",Compound
650.5 ± 1.2 kg/m3,651.3 ± 0.9 kg/m3,,CC [ethane] + N#N
,,451 ± 0.7 kg/m3,N#N [nitrogen] + C
